Test results taken from US20080319001A1, “Cancer Treatment Using Specific 3,6,9-Substituted Acridines” (priority 2005, published 2008).
Where two headings read alike, the source gives them in different places.

How the values were obtained:
[1] = test system: telomerase (extracts from A2780 human ovarian carcinoma cells); assay: Modified telomeric repeat amplification protocol (TRAP) assay, cell-free; format: biochemical
Protocol: The ability of compounds to inhibit telomerase in a cell-free assay was assessed with a modified TRAP assay using extracts from exponentially growing A2780 human ovarian carcinoma cells. The TRAP assay was performed in 2 steps: • (a) telomerase-mediated extension of the forward primer (TS: 5′-AATCCGTCGAGCAGAGTT, Oswel Ltd., Southampton, UK) contained in a 40 μL reaction mix comprising TRAP buffer (20 mM Tris-HCl (pH 8.3), 68 mM KCl, 1.5 mM MgCl2, 1 mM EGTA, 0.05% v/v Tween 20), 0.05 μg bovine serum albumin, 50 μM of each deoxynucleotide triphosphate, 0.1 μg TS primer, and 3 μCi of [α-P]dCTP (Amersham plc, UK)Protein (40 ng or 20 ng) was then incubated with the reaction mix and agent (acid addition and quaternary dimethiodide salts) at final concentrations of up to 50 μM for 20 min at 25° C. A lysis buffer (no protein) control, heat-inactivated protein control, and 50% protein (20 ng or 10 ng) control were included in each assay; and • (b) while heating at 80° C. in a PCR block of a thermal cycler (Hybaid, UK) for 5 min to inactivate telomerase activity, 0.1 μg of reverse CX primer (3′-[…]-5′) and 2 Units of Taq DNA polymerase (“red hot”, Advanced Biotechnologies) were added. A 3-step PCR was then performed: 94° C. for 30 s, 50° C. for 30 s, and 72° C. for 1 min for 31 cycles. Telomerase-extended PCR products in the presence or absence of compounds were then determined either by electrophoretic separation using 8% w/w acrylamide denaturing gels and analysis by phosphorimaging or autoradiography, or by harvesting on Whatman filters (25 mm glass microfibre) and analysis by liquid scintillation counting.

[2] = Cytotoxicity / growth inhibition, A549; format: cell-based; settings: human, A549 cells; read-out: Cytotoxic IC50 vs. A549
Metabolic stability, HLM = format: in vitro ADME, human
[3] = Metabolic stability, cytosol; format: in vitro ADME
[4] = LogP/D measurement (octanol/ISA water titration); format: physicochemical; settings: for logD / logP: octanol/ISA (ionic strength adjusted) water; for logP / Measured LogPion: octanol/ISA water; for logP: read-out: Measured LogP
Protocol: The LogP values were measured by titration of solutions of the compound in Octanol/ISA (ionic strength adjusted) water mixtures on a Sirius GipKa instrument. Titrations in different ratios of Octanol to water enabled the calculation of the Log Pion values and therefore the LogD profile. Prediction of LogP values were made using ACD v8.07 and Syracuse KNOWWIN v1.67 software.

HPLC solution stability = format: physicochemical
Protocol: Due to the generally low solubility of these compounds in 0.9% NaCl and 5% dextrose it was decided to mix these media with 50% Iso-propanol (IPA) to maintain full dissolution of the compound during these studies.
The remaining 5 mg/ml DMSO stock solution from the pKa determination was used for the stability studies. This solution had been stored in the fridge for several days before these stability studies. A solution with a concentration of 0.1 mg/ml was prepared for each experiment (50 fold dilution of DMSO stock). Stability trials were carried out at 4° C. (fridge) and 25° C. (on top of shaker at 25° C.) and at time points of 0, 1 and 7 days. In the case of 100% IPA data was collected at 0, 1 and 14 days after storage at 25° C. The HPLC purity method discussed in section 4.5 below was used for purity analysis. The largest and second largest peaks were added together due to separation of rotamers as discussed above.

[5] = Log P (summary of biological and physicochemical properties, Table 4)
[6] = Table 3, unit inferred, read-out: TRAP EC50
[7] = Table 4, read-out: Telomerase EC50
[8] = pH 6, read-out: Measured LogD pH 6
[9] = pH 6.5, read-out: Measured LogD pH 6.5
[10] = pH 7.4, read-out: Measured LogD pH 7.4
[11] = 0.9% NaCl mixed with 50% IPA, 0 days
[12] = 0.9% NaCl mixed with 50% IPA, 1 day, 4 ° C.
[13] = 0.9% NaCl mixed with 50% IPA, 1 day, 25 ° C.
[14] = 0.9% NaCl mixed with 50% IPA, 7 days, 4 ° C.
[15] = 0.9% NaCl mixed with 50% IPA, 7 days, 25 ° C.
[16] = 5% Dextrose mixed with 50% IPA, 0 days
[17] = 5% Dextrose mixed with 50% IPA, 1 day, 4 ° C.
[18] = 5% Dextrose mixed with 50% IPA, 1 day, 25 ° C.
[19] = 5% Dextrose mixed with 50% IPA, 7 days, 4 ° C.
[20] = 5% Dextrose mixed with 50% IPA, 7 days, 25 ° C.

CN(C)c1ccc(Nc2c3ccc(NC(=O)CCN4CCCC4)cc3nc3cc(NC(=O)CCN4CCCC4)ccc23)cc1 [BSG01]
EC50 [1, 6]: 115 nM
EC50 [1, 7]: 115 nM
IC50 at 96 h [2]: 2420 nM
HLM (t = 45) (Metabolic stability, HLM): 6.1
HLM (t = 90) (Metabolic stability, HLM): 11.2
Cytosol (t = 30) ([3]; t = 30): 3.5
Cytosol (t = 60) ([3]; t = 60): 6.3
logD [4, 8]: -2.56
logD [4, 9]: -1.47
logD [4, 10]: 0.74
logP [4]: 5.02
Measured LogPion [4]: 2.62
Combined rotamer purity (HPLC solution stability; [11]): 95.4
Purity larger rotamer peak (HPLC solution stability; [11]): 89.8
Purity smaller rotamer peak (HPLC solution stability; [11]): 5.7
Combined rotamer purity (HPLC solution stability; [12]): 95.7
Purity larger rotamer peak (HPLC solution stability; [12]): 86.8
Purity smaller rotamer peak (HPLC solution stability; [12]): 8.9
Combined rotamer purity (HPLC solution stability; [13]): 93.5
Purity larger rotamer peak (HPLC solution stability; [13]): 82.3
Purity smaller rotamer peak (HPLC solution stability; [13]): 11.2
Combined rotamer purity (HPLC solution stability; [14]): 66.8
Purity larger rotamer peak (HPLC solution stability; [14]): 47.5
Purity smaller rotamer peak (HPLC solution stability; [14]): 19.4
Combined rotamer purity (HPLC solution stability; [15]): 47.6
Purity larger rotamer peak (HPLC solution stability; [15]): 35.1
Purity smaller rotamer peak (HPLC solution stability; [15]): 12.5
Combined rotamer purity (HPLC solution stability; [16]): 94.8
Purity larger rotamer peak (HPLC solution stability; [16]): 88.7
Purity smaller rotamer peak (HPLC solution stability; [16]): 6.1
Combined rotamer purity (HPLC solution stability; [17]): 94.5
Purity larger rotamer peak (HPLC solution stability; [17]): 84.5
Purity smaller rotamer peak (HPLC solution stability; [17]): 10.00
Combined rotamer purity (HPLC solution stability; [18]): 94.5
Purity larger rotamer peak (HPLC solution stability; [18]): 79.5
Purity smaller rotamer peak (HPLC solution stability; [18]): 15.0
Combined rotamer purity (HPLC solution stability; [19]): 79.3
Purity larger rotamer peak (HPLC solution stability; [19]): 48.4
Purity smaller rotamer peak (HPLC solution stability; [19]): 30.9
Combined rotamer purity (HPLC solution stability; [20]): 68.0
Purity larger rotamer peak (HPLC solution stability; [20]): 35.2%
Purity smaller rotamer peak (HPLC solution stability; [20]): 32.8
Combined rotamer purity (HPLC solution stability; 100% IPA, 0 days): 91.9
Purity larger rotamer peak (HPLC solution stability; 100% IPA, 0 days): 86.4
Purity smaller rotamer peak (HPLC solution stability; 100% IPA, 0 days): 5.5
Combined rotamer purity (HPLC solution stability; 100% IPA, 1 day, 25 ° C.): 93.2
Purity larger rotamer peak (HPLC solution stability; 100% IPA, 1 day, 25 ° C.): 87.2
Purity smaller rotamer peak (HPLC solution stability; 100% IPA, 1 day, 25 ° C.): 6.0
Combined rotamer purity (HPLC solution stability; 100% IPA, 14 days, 25 ° C.): 94.0
Purity larger rotamer peak (HPLC solution stability; 100% IPA, 14 days, 25 ° C.): 82.8
Purity smaller rotamer peak (HPLC solution stability; 100% IPA, 14 days, 25 ° C.): 11.2
logP [5]: 1.4

O=C(CCN1CCCC1)Nc1ccc2c(NCc3ccc(F)c(F)c3)c3ccc(NC(=O)CCN4CCCC4)cc3nc2c1 [BSG17, N-(9-(3,4-Difluoro-benzylamino)-6-(3-pyrolidin-1-yl-propionamide)-acridin-3-yl)-3-pyrrolidin-1-yl-propionamide]
EC50 [1, 6]: 32 nM
EC50 [1, 7]: 162 nM
IC50 at 96 h [2]: 2120 nM
HLM (t = 45) (Metabolic stability, HLM): 3.1
HLM (t = 90) (Metabolic stability, HLM): 12.4
logD [4, 8]: -0.15
logD [4, 9]: 0.38
logD [4, 10]: 1.58
logP [4]: 5.54
Measured LogPion [4]: 3.75
Combined rotamer purity (HPLC solution stability; [11]): 89.4
Purity larger rotamer peak (HPLC solution stability; [11]): 61.4
Purity smaller rotamer peak (HPLC solution stability; [11]): 28.0
Combined rotamer purity (HPLC solution stability; [12]): 85.1
Purity larger rotamer peak (HPLC solution stability; [12]): 58.4
Purity smaller rotamer peak (HPLC solution stability; [12]): 26.8
Combined rotamer purity (HPLC solution stability; [13]): 82.4
Purity larger rotamer peak (HPLC solution stability; [13]): 55.9
Purity smaller rotamer peak (HPLC solution stability; [13]): 26.5
Combined rotamer purity (HPLC solution stability; [14]): 61.0
Purity larger rotamer peak (HPLC solution stability; [14]): 39.2
Purity smaller rotamer peak (HPLC solution stability; [14]): 21.8
Combined rotamer purity (HPLC solution stability; [15]): 54.5
Purity larger rotamer peak (HPLC solution stability; [15]): 33.8
Purity smaller rotamer peak (HPLC solution stability; [15]): 20.8
Combined rotamer purity (HPLC solution stability; [16]): 88.5
Purity larger rotamer peak (HPLC solution stability; [16]): 60.7
Purity smaller rotamer peak (HPLC solution stability; [16]): 27.8
Combined rotamer purity (HPLC solution stability; [17]): 83.8
Purity larger rotamer peak (HPLC solution stability; [17]): 56.9
Purity smaller rotamer peak (HPLC solution stability; [17]): 26.9
Combined rotamer purity (HPLC solution stability; [18]): 78.0
Purity larger rotamer peak (HPLC solution stability; [18]): 52.4
Purity smaller rotamer peak (HPLC solution stability; [18]): 25.6
Combined rotamer purity (HPLC solution stability; [19]): 53.2
Purity larger rotamer peak (HPLC solution stability; [19]): 32.5
Purity smaller rotamer peak (HPLC solution stability; [19]): 20.7
Combined rotamer purity (HPLC solution stability; [20]): 39.4
Purity larger rotamer peak (HPLC solution stability; [20]): 22.3
Purity smaller rotamer peak (HPLC solution stability; [20]): 17.1
Combined rotamer purity (HPLC solution stability; 100% IPA, 0 days): 84.6
Purity larger rotamer peak (HPLC solution stability; 100% IPA, 0 days): 58.8
Purity smaller rotamer peak (HPLC solution stability; 100% IPA, 0 days): 25.8
Combined rotamer purity (HPLC solution stability; 100% IPA, 1 day, 25 ° C.): 81.5
Purity larger rotamer peak (HPLC solution stability; 100% IPA, 1 day, 25 ° C.): 56.6
Purity smaller rotamer peak (HPLC solution stability; 100% IPA, 1 day, 25 ° C.): 25.0
Combined rotamer purity (HPLC solution stability; 100% IPA, 14 days, 25 ° C.): 77.2
Purity larger rotamer peak (HPLC solution stability; 100% IPA, 14 days, 25 ° C.): 52.7
Purity smaller rotamer peak (HPLC solution stability; 100% IPA, 14 days, 25 ° C.): 24.5
logP [5]: 1.59
